#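 96-well plates; 48 h exposure; 5 concentrations. Endpoints by linear interpolation between flanking doses. Not reached: highest tested concentration assigned. TGI: total growth inhibition.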 *1 amine or outer side, *2 acyl side, *3 side chain or, on linkers, in order; H or OH if unused. Where a SMILES comes first, the peptide text is derived from it. [ ]: non-standard residue; d: D form. ξ: configuration not given here. X22 = O=C(C(CC(O)CO)O[*:1])[*:2]; Ile(3ξ) = CCC(C)[C@H](N)C(=O)O; NMeV = CN[C@H](C(=O)O)C(C)C; NMeA = CN[C@@H](C)C(=O)O; βAla = NCCC(=O)O
# What was measured:
# Assay in all cases: NCI-60 cell line screen, 48 h
# [1] = system: TK-10 renal
# [2] = system: HOP-62 NSCLC
# [3] = system: EKVX NSCLC
# [4] = system: OVCAR-8 ovarian
# [5] = system: NCI-H460 lung
# [6] = system: CCRF-CEM leukemia
# [7] = system: XF 498 CNS
# [8] = system: NCI-H522 lung
# [9] = system: HT29 colon
# [10] = system: UO-31 renal
# [11] = system: A498 renal
# [12] = system: SNB-75 CNS
# [13] = system: MALME-3M melanoma
# [14] = system: U251 CNS
# [15] = system: IGROV1 ovarian
# [16] = system: 786-0 renal
# [17] = system: MCF7 breast
# [18] = system: BT-549 breast
# [19] = system: HS 578T breast
# [20] = system: T-47D breast
SMILES,TGI [1],TGI [2],TGI [3],TGI [4],TGI [5],TGI [6],TGI [7],TGI [8],TGI [9],TGI [10],TGI [11],TGI [12],TGI [13],TGI [14],TGI [15],TGI [16],TGI [17],TGI [18],TGI [19],TGI [20]
CSc1nc2nc(C(O)C(O)C(O)CO)cnc2c(=O)[nH]1 (stereo not drawn),> 100 µM,> 100 µM,> 100 µM,> 100 µM,> 100 µM,> 100 µM,> 100 µM,> 100 µM,> 100 µM,> 100 µM,> 100 µM,> 100 µM,> 100 µM,> 100 µM,> 100 µM,> 100 µM,–,–,–,–
N#CC1CCCCC1NC1(C#N)CCCCC1 (stereo not drawn),> 100 µM,> 100 µM,> 100 µM,> 100 µM,–,> 100 µM,> 100 µM,> 100 µM,> 100 µM,> 100 µM,> 100 µM,> 100 µM,> 100 µM,> 100 µM,> 100 µM,> 100 µM,–,–,–,–
COC1=CC(=O)C2C(C1=O)C(c1ccc(Cl)cc1)[C@@H]2C (stereo partly drawn),> 100 µM,> 100 µM,71.4 µM,67.4 µM,75.6 µM,93.2 µM,37.5 µM,29.8 µM,> 100 µM,63.6 µM,> 100 µM,64.8 µM,46 µM,62.9 µM,> 100 µM,57.2 µM,–,–,–,–
O=C(NNC(=O)c1ccccc1O)c1ccco1,> 100 µM,> 100 µM,> 100 µM,> 100 µM,> 100 µM,> 100 µM,–,> 100 µM,> 100 µM,> 100 µM,> 100 µM,> 100 µM,> 100 µM,> 100 µM,> 100 µM,> 100 µM,> 100 µM,> 100 µM,> 100 µM,> 100 µM
N=c1oc2ccccc2cc1C(=O)Nc1nccs1,> 50.7 µM,64.7 µM,> 79.5 µM,> 92.4 µM,> 76.5 µM,20 µM,–,3.82 µM,> 100 µM,0.22 µM,> 100 µM,99 µM,> 100 µM,> 100 µM,> 49.2 µM,6.3 µM,> 100 µM,> 100 µM,> 100 µM,> 84 µM
CC(C)NC(=O)OCc1c(COC(=O)NC(C)C)c(-c2cc[n+](COC(=O)C(C)C)cc2)n2c1CCC2,> 100 µM,> 100 µM,> 100 µM,> 100 µM,> 100 µM,> 100 µM,–,> 100 µM,> 100 µM,> 100 µM,35.9 µM,> 100 µM,> 100 µM,> 100 µM,> 100 µM,> 100 µM,> 100 µM,> 100 µM,> 100 µM,> 100 µM
CCC(C)[C@@H]1NC(=O)[C@@H]2CCCN2C(=O)C(CC(O)CO)OC(=O)CCNC(=O)[C@H](C)N(C)C(=O)[C@H](C(C)C)N(C)C1=O (stereo partly drawn) (cyclo([Ile(3ξ)][NMeV][NMeA][βAla][X22]P)),> 100 µM,> 100 µM,–,> 100 µM,> 100 µM,> 100 µM,> 100 µM,–,> 100 µM,> 100 µM,> 100 µM,> 100 µM,> 100 µM,> 100 µM,> 100 µM,> 100 µM,–,–,–,–
CSc1nc(Br)nc2ncn(C3CC(Oc4ccc(C)cc4)C(COc4ccc(C)cc4)O3)c12 (stereo not drawn),> 100 µM,> 100 µM,> 100 µM,> 100 µM,> 100 µM,> 100 µM,–,> 100 µM,> 100 µM,75.7 µM,> 100 µM,> 100 µM,> 100 µM,> 100 µM,> 100 µM,> 100 µM,> 100 µM,> 100 µM,63.5 µM,> 100 µM
COC(=O)C(Cc1nc2ccccc2[nH]c1=O)C(=O)C(=O)Nc1ccc(F)cc1 (stereo not drawn),> 100 µM,> 100 µM,> 100 µM,38.6 µM,> 100 µM,> 100 µM,> 100 µM,22.3 µM,> 100 µM,> 100 µM,–,> 100 µM,79.5 µM,–,> 100 µM,58.8 µM,–,–,–,–
CCOC(=O)CC(NCc1ccc(N=Cc2nc3ccc(C(F)(F)F)cc3nc2-c2ccccc2)cc1)C(=O)OCC (stereo not drawn),> 80.6 µM,> 81.7 µM,> 100 µM,> 100 µM,> 100 µM,> 100 µM,40.5 µM,> 100 µM,> 100 µM,> 100 µM,> 100 µM,> 77 µM,> 100 µM,> 100 µM,> 100 µM,> 100 µM,–,–,–,–
C=C(C)CC(C)(c1cc2ccccc2n1C)N1CCOCC1 (stereo not drawn),> 100 µM,> 100 µM,> 100 µM,> 100 µM,> 100 µM,> 100 µM,> 100 µM,60.9 µM,> 100 µM,> 100 µM,–,> 100 µM,> 100 µM,–,> 100 µM,> 100 µM,–,–,–,–
CCc1ccc(/C=C/C(=O)C2CN(CC)CCC2(O)/C=C/c2ccc(CC)cc2)cc1 (stereo not drawn),5.54 µM,3.54 µM,17.4 µM,11.6 µM,7.26 µM,5.16 µM,–,4.79 µM,3.79 µM,11.6 µM,23.1 µM,21.6 µM,20 µM,3.41 µM,4.35 µM,3.22 µM,7.34 µM,11.2 µM,8.67 µM,10.1 µM
CC(=O)NC(CCCNC(=O)OCc1ccccc1)C(=O)O (stereo not drawn),> 100 µM,> 100 µM,> 100 µM,> 100 µM,> 100 µM,> 100 µM,> 100 µM,> 100 µM,> 100 µM,> 100 µM,> 100 µM,> 100 µM,> 100 µM,> 100 µM,> 100 µM,> 100 µM,–,–,–,–
C=C(CO)[C@H]1Oc2ccc(C(C)=O)cc2[C@@H]1O,> 100 µM,> 100 µM,> 100 µM,> 100 µM,> 100 µM,> 100 µM,–,> 100 µM,> 100 µM,> 100 µM,> 100 µM,> 100 µM,> 100 µM,> 100 µM,> 100 µM,> 100 µM,> 100 µM,> 100 µM,> 100 µM,> 100 µM
CSc1ccc(/C=C2\N=C(c3ccccc3)N(/N=C3\C(=O)Nc4ccccc43)C2=O)cc1,> 100 µM,> 100 µM,> 100 µM,> 100 µM,> 100 µM,> 100 µM,–,> 100 µM,> 100 µM,> 100 µM,> 100 µM,> 100 µM,> 100 µM,> 100 µM,> 100 µM,> 100 µM,> 100 µM,> 100 µM,> 100 µM,> 100 µM
CC(=O)OCC1OC(Oc2cc(C)c(O)cc2C/C=C(\C)CC/C=C(\C)C[C@@H](C=C(C)C)OC(C)=O)C(O)C(OC(C)=O)C1OC(C)=O (stereo partly drawn),> 50 µM,> 50 µM,> 50 µM,> 50 µM,> 50 µM,29.4 µM,–,> 50 µM,> 50 µM,> 50 µM,41.9 µM,48.2 µM,> 50 µM,> 50 µM,> 50 µM,> 50 µM,> 50 µM,> 50 µM,39.2 µM,30.7 µM
COC(=O)[C@@H]1COC(C(C)(C)C)N1C(=O)C(c1ccccc1)c1ccccc1 (stereo partly drawn),> 100 µM,> 100 µM,> 100 µM,> 100 µM,> 100 µM,84.7 µM,–,> 100 µM,> 100 µM,> 100 µM,> 100 µM,> 100 µM,> 100 µM,> 100 µM,> 100 µM,> 100 µM,> 100 µM,> 100 µM,> 100 µM,> 100 µM
O=C1CSC(c2ccccc2O)N1c1nc2cc3sc(N4C(=O)CSC4c4ccccc4O)nc3cc2s1 (stereo not drawn),> 100 µM,> 100 µM,> 100 µM,> 100 µM,> 33.6 µM,> 100 µM,–,> 100 µM,> 100 µM,> 100 µM,> 100 µM,> 100 µM,> 100 µM,> 100 µM,> 100 µM,> 100 µM,> 100 µM,> 100 µM,> 100 µM,> 100 µM
Cn1cnc2c1c(=O)n(CCNCCO)c(=O)n2C,> 100 µM,> 100 µM,> 100 µM,> 100 µM,> 100 µM,> 100 µM,–,> 100 µM,> 100 µM,> 100 µM,> 100 µM,> 100 µM,> 100 µM,> 100 µM,> 100 µM,> 100 µM,> 100 µM,> 100 µM,> 100 µM,> 100 µM
Nc1c(Br)cc(-c2nc3ccccc3s2)cc1Br,> 100 µM,> 100 µM,> 100 µM,> 100 µM,> 100 µM,> 100 µM,–,> 100 µM,> 100 µM,> 100 µM,> 100 µM,> 100 µM,> 100 µM,> 100 µM,> 100 µM,> 100 µM,> 100 µM,> 100 µM,> 100 µM,> 100 µM
CC1OC(OCC2OC(Oc3ccc(C4CC(=O)c5c(O)cc(O)cc5O4)cc3O)C(O)C(O)C2O)C(O)C(O)C1O (stereo not drawn),> 100 µM,> 100 µM,> 100 µM,> 100 µM,> 100 µM,> 100 µM,–,> 100 µM,> 100 µM,> 100 µM,> 100 µM,> 100 µM,> 100 µM,> 100 µM,> 100 µM,> 100 µM,> 100 µM,> 100 µM,> 100 µM,> 100 µM
Cn1ccoc1=Nc1ccc(Cl)c(Cl)c1,> 10 µM,> 10 µM,> 10 µM,> 10 µM,> 10 µM,> 10 µM,–,> 10 µM,> 10 µM,> 10 µM,> 10 µM,> 10 µM,> 10 µM,> 10 µM,> 10 µM,> 10 µM,> 10 µM,> 10 µM,> 10 µM,> 10 µM
CCOC(=O)C1=C(c2ccccc2)N(C(C)=O)Cc2ccccc21,> 100 µM,44.3 µM,> 100 µM,> 100 µM,41.3 µM,78.7 µM,25 µM,51.7 µM,33.8 µM,> 100 µM,–,77.1 µM,46.7 µM,36.8 µM,> 100 µM,> 100 µM,–,–,–,–
CCCCCC(=Nc1n[nH]nc1C(N)=O)OCC,> 100 µM,> 100 µM,> 100 µM,> 100 µM,> 100 µM,> 100 µM,–,> 100 µM,> 100 µM,> 100 µM,> 100 µM,> 100 µM,> 100 µM,> 100 µM,> 100 µM,> 100 µM,> 100 µM,> 100 µM,> 100 µM,> 100 µM
CCSc1nnc(-c2ccccc2)nc1Cc1ccc(OC)cc1,> 100 µM,> 100 µM,> 100 µM,> 100 µM,> 100 µM,> 100 µM,> 100 µM,> 100 µM,> 100 µM,> 100 µM,> 100 µM,> 100 µM,> 100 µM,> 100 µM,> 100 µM,> 100 µM,–,–,–,–
C[N+]1(C)C[C@@H](O)C[C@@H]1C(=O)[O-],> 100 µM,> 100 µM,> 100 µM,> 100 µM,> 100 µM,> 100 µM,> 100 µM,> 100 µM,> 100 µM,> 100 µM,> 100 µM,> 100 µM,> 100 µM,> 100 µM,> 100 µM,> 100 µM,–,–,–,–

# Reference: PubChem BioAssay (NCI)
